In the supplement of paper PMC10307832:

How the values were obtained:
[1] = compound: Cc1ccc2nc(NCCN)c3ncc(C)n3c2c1 + COc1cc2c(Oc3ccc(NC(=O)C4(C(=O)Nc5ccc(F)cc5)CC4)cc3F)ccnc2cc1OCCCN1CCOCC1 [Foretinib] (partner 0.25 µM); experiment: relative viability (nuclei count vs DMSO), 5 days (fraction); higher = more cells survive
Procedure, shortened: (§1)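 Relative viability equals treated-well nuclei counts divided by vehicle-well nuclei counts. Counts came from 4× images of lung cancer cell lines grown in 1536-well plates for 5 days after pin-tool dosing on the day after seeding. Dosing used one drug alone or a fixed anchor-drug dose plus five library-drug doses (not always all listed) in √10 steps, and values are medians of duplicate plates.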

Salubrinal + Tozasertib = compound: O=C(/C=C/c1ccccc1)NC(NC(=S)Nc1cccc2cccnc12)C(Cl)(Cl)Cl [Salubrinal] + Cc1cc(Nc2cc(N3CCN(C)CC3)nc(Sc3ccc(NC(=O)C4CC4)cc3)n2)n[nH]1 [Tozasertib] (partner 0.1 µM); experiment: as above
Procedure, shortened: as §1

Row | Cell Line | relative viability ([1]; first compound 0.04 µM) | relative viability ([1]; first compound 0.1265 µM) | relative viability ([1]; first compound 0.4 µM) | relative viability ([1]; first compound 1.265 µM) | relative viability ([1]; first compound 4 µM) | relative viability (Salubrinal + Tozasertib; first compound 0.08 µM) | relative viability (Salubrinal + Tozasertib; first compound 0.253 µM) | relative viability (Salubrinal + Tozasertib; first compound 0.8 µM) | relative viability (Salubrinal + Tozasertib; first compound 2.53 µM) | relative viability (Salubrinal + Tozasertib; first compound 8 µM)
1 | 201T | 1.07 | 1.13 | 1.1 | 1.1 | 1.05 | 0.873 | 0.837 | 0.933 | 0.98 | 0.967
2 | NCI-H1793 | 0.79 | 0.68 | 0.672 | 0.615 | 0.748 | 0.504 | 0.637 | 0.234 | 0.26 | 0.326
3 | NCI-H460 | 0.982 | 0.901 | 0.955 | 0.928 | 0.965 | 0.393 | 0.268 | 0.484 | 0.253 | 0.102
4 | NCI-H661 | 1.02 | 0.983 | 1.03 | 1.1 | 0.967 | 0.367 | 0.36 | 0.373 | 0.356 | 0.37
5 | HCC-15 | 1.08 | 1.07 | 1.06 | 0.885 | 0.723 | 0.481 | 0.332 | 0.41 | 0.438 | 0.257
6 | ABC-1 | 1.22 | 1.05 | 1.09 | 0.839 | 1.01 | 0.168 | 0.185 | 0.194 | 0.183 | 0.206
7 | LCLC-103H | 0.753 | 0.919 | 0.802 | 0.761 | 0.633 | 0.487 | 0.445 | 0.404 | 0.498 | 0.42
8 | NCI-H441 | 1.1 | 1.28 | 0.982 | 0.926 | 0.918 | 0.554 | 0.431 | 0.74 | 0.576 | 0.448
9 | EPLC-272H | 0.664 | 0.809 | 0.64 | 0.75 | 0.692 | 0.426 | 0.249 | 0.258 | 0.243 | 0.242
